Patent US10167272B2, “Muscarinic agonists” (Heptares Therapeutics Limited, priority 2015, dated 2019)
Like-named read-outs stand apart in the source and are kept apart here.

What was measured:
Type in all cases: cell-based
[1] = biological target: T1, human muscarinic M1 receptor (Homo sapiens, UniProt P11229); experiment: Alphascreen Surefire phospho-ERK1/2 functional assay, M1; conditions: phospho-ERK1/2; for EC50 / % Emax cf. ACh (M1): CHO cells stably expressing human M1; for EC50: read-out: pEC50 M1 (converted); for Emax: CHO, read-out: % Emax cf. ACh (M1), CHO cells stably expressing human M1; for Emax / % Emax cf. ACh (M1): relative to ACh
T1 sequence (P11229 1-460): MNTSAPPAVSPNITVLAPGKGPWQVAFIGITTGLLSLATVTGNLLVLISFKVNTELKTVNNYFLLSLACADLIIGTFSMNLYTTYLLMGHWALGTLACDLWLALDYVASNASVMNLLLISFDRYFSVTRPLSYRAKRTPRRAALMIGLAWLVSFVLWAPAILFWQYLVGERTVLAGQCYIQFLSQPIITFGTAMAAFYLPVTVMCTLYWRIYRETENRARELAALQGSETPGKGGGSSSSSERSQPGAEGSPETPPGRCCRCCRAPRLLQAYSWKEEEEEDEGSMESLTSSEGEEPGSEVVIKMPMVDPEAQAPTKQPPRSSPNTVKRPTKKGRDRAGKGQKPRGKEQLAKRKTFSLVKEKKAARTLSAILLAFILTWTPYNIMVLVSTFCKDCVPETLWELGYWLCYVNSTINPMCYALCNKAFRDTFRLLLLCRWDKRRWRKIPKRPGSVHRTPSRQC
Summary of the method: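 CHO cells stably expressing human M1, M2 or M3 receptor, serum-starved overnight, were stimulated with agonist for 5 min at 37 °C. Cells were then lysed and ERK1/2 phosphorylation detected by AlphaScreen SureFire.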

[2] = biological target: T2, human muscarinic M2 receptor (Homo sapiens, UniProt P08172); experiment: Alphascreen Surefire phospho-ERK1/2 functional assay, M2; conditions: for EC50: CHO cells stably expressing human M2, read-out: pEC50 M2 (converted); for Emax: CHO, read-out: % Emax cf. ACh (M2), CHO cells stably expressing human M2, relative to ACh
T2 sequence (P08172 1-466): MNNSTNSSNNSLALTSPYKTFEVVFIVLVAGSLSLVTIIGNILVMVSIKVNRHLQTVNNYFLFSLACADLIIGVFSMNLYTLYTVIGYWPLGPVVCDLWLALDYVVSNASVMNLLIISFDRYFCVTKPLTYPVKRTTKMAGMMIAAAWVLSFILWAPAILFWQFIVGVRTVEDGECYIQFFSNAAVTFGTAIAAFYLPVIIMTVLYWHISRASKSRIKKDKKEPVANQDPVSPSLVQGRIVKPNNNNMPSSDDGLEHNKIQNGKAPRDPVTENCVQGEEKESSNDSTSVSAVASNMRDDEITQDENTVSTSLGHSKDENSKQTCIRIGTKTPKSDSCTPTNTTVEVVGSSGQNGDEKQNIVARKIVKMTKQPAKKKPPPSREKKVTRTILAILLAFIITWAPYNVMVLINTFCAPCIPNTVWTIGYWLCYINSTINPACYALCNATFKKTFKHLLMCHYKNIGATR
Procedure: (§1) ERK1/2 phosphorylation is a downstream consequence of both Gq/11 and Gi/o protein coupled receptor activation, making it highly suitable for the assessment of M1, M3 (Gq/11 coupled) and M2, M4 receptors (Gi/o coupled), rather than using different assay formats for different receptor subtypes. CHO cells stably expressing the human muscarinic M1, M2, M3 or M4 receptor were plated (25K/well) onto 96-well tissue culture plates in MEM-alpha+10% dialysed FBS. Once adhered, cells were serum-starved overnight. Agonist stimulation was performed by the addition of 5 μL agonist to the cells for 5 min (37° C.). Media was removed and 50 μL of lysis buffer added. After 15 min, a 4 μL sample was transferred to 384-well plate and 7 μL of detection mixture added.

[3] = biological target: T3, human muscarinic M3 receptor (Homo sapiens, UniProt P20309); experiment: Alphascreen Surefire phospho-ERK1/2 functional assay, M3; conditions: phospho-ERK1/2; for EC50: CHO cells stably expressing human M3, read-out: pEC50 M3 (converted); for Emax: CHO, read-out: % Emax cf. ACh (M3), CHO cells stably expressing human M3, relative to ACh
T3 construct: expressed in transfected cells
T3 sequence (P20309 whole entry): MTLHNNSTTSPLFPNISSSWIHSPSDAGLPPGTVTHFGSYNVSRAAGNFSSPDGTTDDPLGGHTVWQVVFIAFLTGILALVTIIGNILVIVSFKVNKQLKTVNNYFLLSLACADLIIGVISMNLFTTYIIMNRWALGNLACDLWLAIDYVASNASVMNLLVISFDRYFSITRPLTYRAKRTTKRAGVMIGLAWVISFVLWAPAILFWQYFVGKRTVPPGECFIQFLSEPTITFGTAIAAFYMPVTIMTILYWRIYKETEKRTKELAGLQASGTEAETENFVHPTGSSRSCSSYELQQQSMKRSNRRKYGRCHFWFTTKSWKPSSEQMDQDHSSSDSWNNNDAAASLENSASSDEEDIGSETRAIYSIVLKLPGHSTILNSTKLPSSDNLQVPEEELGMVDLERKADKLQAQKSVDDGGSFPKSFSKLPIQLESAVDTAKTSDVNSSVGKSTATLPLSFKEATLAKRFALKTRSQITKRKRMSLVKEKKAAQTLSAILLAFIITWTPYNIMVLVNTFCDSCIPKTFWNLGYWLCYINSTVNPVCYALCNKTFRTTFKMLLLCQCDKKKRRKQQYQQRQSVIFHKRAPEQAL
Procedure: as §1

[4] = biological target: T4, human muscarinic M4 receptor (Homo sapiens, UniProt P08173); experiment: Alphascreen Surefire phospho-ERK1/2 functional assay, M4; conditions: for Emax: CHO, read-out: % Emax cf. ACh (M4), CHO cells stably expressing human M4; for Emax / % Emax cf. ACh (M4): relative to ACh
T4 construct: expressed in transfected cells
T4 sequence (P08173 1-479): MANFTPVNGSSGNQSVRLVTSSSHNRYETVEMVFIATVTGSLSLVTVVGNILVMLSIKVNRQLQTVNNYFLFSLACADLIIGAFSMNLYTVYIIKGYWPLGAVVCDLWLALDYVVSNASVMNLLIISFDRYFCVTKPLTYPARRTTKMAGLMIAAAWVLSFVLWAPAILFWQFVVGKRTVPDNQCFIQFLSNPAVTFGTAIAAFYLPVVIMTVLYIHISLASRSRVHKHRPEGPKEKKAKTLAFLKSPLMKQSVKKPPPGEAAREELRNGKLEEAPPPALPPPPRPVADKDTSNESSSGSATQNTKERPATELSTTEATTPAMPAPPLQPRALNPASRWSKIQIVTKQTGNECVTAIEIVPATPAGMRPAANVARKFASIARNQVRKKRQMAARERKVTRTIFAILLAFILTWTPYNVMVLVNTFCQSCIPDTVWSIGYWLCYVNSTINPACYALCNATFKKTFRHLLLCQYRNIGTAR

[5] = CHO cells stably expressing human M4, phospho-ERK1/2, read-out: pEC50 M4 (converted)
[6] = CHO cells stably expressing human M4, phospho-ERK1/2

Row | EC50 [1] [nM] | Emax [1] [%] | EC50 [2] [nM] | Emax [2] [%] | EC50 [3] [nM] | Emax [3] [%] | EC50 [4, 5] [nM] | Emax ([4]; phospho-ERK1/2) [%] | % Emax cf. ACh (M1) [1] [%] | % Emax cf. ACh (M4) [4, 6] [%] | SMILES | EC50 ([4]; pEC50 M4) [nM]
1 | 251 | 106 | > 20000 | 28 | > 20000 | 20 | 31.6 | 98 | – | – | CCOC(=O)N1CCC2(CC(N3CCC(N(CC(F)(F)F)C4COC4)CC3)C2)C1 (single isomer, unassigned) [2-54 Isomer 2] | –
2 | 200 | 104 | > 20000 | 3 | > 20000 | 9 | 31.6 | 114 | – | – | CCOC(=O)N1CCC2(CC(N3CCC(N(C(=O)C(F)(F)F)C4CC4)CC3)C2)C1 (single isomer, unassigned) [2-4 Isomer 2] | –
3 | 2510 | 46 | > 20000 | 2 | > 20000 | 4 | 31.6 | 128 | – | – | CCOC(=O)N1CCC2(CC(N3CCC(C(C)(C)N(CC)C(C)=O)CC3)C2)C1 (single isomer, unassigned) [2-64 Isomer 2] | –
4 | 2510 | 47 | > 20000 | 12 | > 20000 | 5 | 100 | 108 | – | – | CCOC(=O)N1CCC2(CC(N3CCC(C(C)N(C(=O)CC)C4CC4)CC3)C2)C1 (single isomer, unassigned) [2-14 Isomer 2] | –
5 | 316 | 84 | > 20000 | 18 | > 20000 | 22 | 20 | 89 | – | – | CCOC(=O)N1CCC2(CC(N3CCC(N(CCO)CC(F)(F)F)CC3)C2)C1 (single isomer, unassigned) [2-51 Isomer 2] | –
6 | 631 | 57 | > 20000 | 5 | > 20000 | 5 | 100 | 91 | – | – | CCOC(=O)N1CCC2(CC(N3CCC(N(C(=O)CC)C4CC4)CC3)C2)C1 (single isomer, unassigned) [2-5 Isomer 2] | –
7 | 631 | 76 | > 20000 | 21 | > 20000 | 1 | 20 | 115 | – | – | [2H]C([2H])(C)OC(=O)N1CCC2(CC(N3CCC(N(CC)C(C)=O)CC3)C2)C1 (single isomer, unassigned) [2-38 Isomer 2] | –
8 | > 20000 | 18 | > 20000 | 3 | > 20000 | 21 | 3.98 | 93 | – | – | CCOC(=O)N1CC2(CCC(N3CCC(N(CC)C(C)=O)CC3)C2)C1 (single isomer, unassigned) [3-3 Isomer 2] | –
9 | 200 | – | > 20000 | 13 | > 20000 | 6 | 31.6 | – | 93 | 93 | CCOC(=O)N1CCC2(CC(N3CCC(N(C(C)=O)C4CC4)CC3)C2)C1 (single isomer, unassigned) [2-3 Isomer 2] | –
10 | 100 | 101 | > 20000 | 7 | > 20000 | 14 | 31.6 | 98 | – | – | CCOC(=O)N1CCC2(CC(N3CCC(N(C(C)=O)C4CCC4)CC3)C2)C1 (single isomer, unassigned) [2-6 Isomer 2] | –
11 | 39.8 | 117 | 12600 | 68 | 7940 | 53 | 39.8 | 75 | – | – | CCOC(=O)N1CCC2(CC(N3CCC(N(CC(F)(F)F)C4CC4)CC3)C2)C1 (single isomer, unassigned) [2-48 Isomer 2] | –
12 | > 20000 | 161 | > 20000 | 15 | > 20000 | 5 | 25.1 | 65 | – | – | CCOC(=O)N1CCC2(CC(N3CCC(N(CC)CCC#N)CC3)C2)C1 (single isomer, unassigned) [2-55 Isomer 2] | –
13 | 200 | – | 1260 | 29 | > 20000 | 73 | 158 | – | 99 | 84 | CCOC(=O)N1CCC2(CC(N3CCC(N(CC(C)(C)OC)C(C)=O)CC3)C2)C1 (single isomer, unassigned) [2-29 Isomer 2] | –
14 | > 20000 | 4 | > 20000 | 6 | > 20000 | 6 | 20 | 57 | – | – | CCOC(=O)N1CCC2(CC(N3CCC(N(CCOC)C4CC4)CC3)C2)C1 (single isomer, unassigned) [2-8 Isomer 2] | –
15 | > 20000 | 18 | > 20000 | 5 | > 20000 | 4 | 126 | 88 | – | – | CCOC(=O)N1CCC2(CC(N3CCC(C(C)N(C(C)=O)C4CC4)CC3)C2)C1 (single isomer, unassigned) [2-13 Isomer 2] | –
16 | 501 | 39 | > 20000 | 32 | > 20000 | 9 | 63.1 | 110 | – | – | CCOC(=O)N1CCC2(CC(N3CCC(N(CC)C(=O)OCC)CC3)C2)C1 (single isomer, unassigned) [2-40 Isomer 2] | –
17 | > 20000 | 59 | > 20000 | 17 | > 20000 | 8 | 39.8 | 76 | – | – | CCOC(=O)N1CCC2(CC(N3CCC(OC(C)c4ccccc4)CC3)C2)C1 (single isomer, unassigned) [2-66 Isomer 2] | –
18 | 1000 | 40 | > 20000 | 11 | > 20000 | 23 | 39.8 | 107 | – | – | CCOC(=O)N1CCC2(CC(N3CCC(N(CC)OC)CC3)C2)C1 (single isomer, unassigned) [2-57 Isomer 2] | –

Row | SMILES | EC50 [1] [nM] | Emax [1] [%] | EC50 [2] [nM] | Emax [2] [%] | EC50 [3] [nM] | Emax [3] [%] | EC50 [4, 5] [nM] | Emax ([4]; phospho-ERK1/2) [%] | % Emax cf. ACh (M1) [1] [%] | % Emax cf. ACh (M4) [4, 6] [%] | EC50 ([4]; pEC50 M4) [nM]
19 | CCOC(=O)N1CCC2(CC(N3CCC(N(CC)CC(F)F)CC3)C2)C1 (single isomer, unassigned) [2-46 Isomer 2] | 316 | 63 | > 20000 | 5 | > 20000 | 12 | – | 98 | – | – | 7.94
